Ends that are not written are not given here. Fl = fluorescein

The subject of the experiment is human coronary artery endothelial cells (HCAE). The experiment is described as follows: Binding of fluorescein-labeled ligands to HCAE cells, imaged by laser confocal fluorescence microscopy. In kind it is cell-based. The following applies: HCAE cells known to express LOX-1; about 10 μL of 1 mg/ml labeled ligand, incubated 1 hour, washed three times. The method, then:
Images in the assay may be acquired using a laser confocal microscope or an Imager. For example, images of peptides bound to cells can be obtained using a laser confocal microscope as follows: HCAE cells can be grown on high quality borosilicate 8-chambered glass slides (Electron Microscopy Sciences, Fort Washington, Pa.). Then, about 10 μL of 1 mg/ml of an aqueous solution of a labeled peptide can be added to the cells and incubated for 1 hour. Subsequently, the cells preferably are washed with HBSS buffer three times. The cells then can be fixed with 4% formaldehyde solution over 10 minutes. After a final wash with buffer, the slide is imaged. Images preferably are acquired using an OLYMPUS laser scanning confocal microscope, model Fluoview 300, using Ar-ion laser (selecting 488 nm line) and a 510-nm long-pass filter. Images can be acquired using two channels: reflected light and fluorescent mode channel, or an overlay of both channels.
The experimental conditions for imaging the peptide-labeled HCAECs are described previously.
The image was obtained using a laser confocal microscope as follows: HCAE cells were laid on and grown in wells on a standard commercial 96-well plate (Becton-Dickenson, Franklin Lakes, N.J.). Then, about 10 μL of 1 mg/ml labeled antibody aqueous solution was added to the cells and incubated for 1 hour. […]

As for “Fl-KGKG-QPLFTPQ (Fl-KGKGQPLFTPQ) [comparative peptide]”, the “binding / localization on HCAECs (fluorescent confocal image)” value is “weaker binding affinity”.
The same measure for Fl-KKGG-FQTPPQL (Fl-KKGGFQTPPQL): “localized on the cells”.

Source of the values: patent US20050089470A1, “Labeled peptides for lectin-like oxidized low-density lipoprotein receptor (LOX-1)” (priority 2003, published 2005).
